Reference: patent publication US20140080907A1, “LIVER REGENERATION ACCELERATOR COMPRISING BETAINE” (SNU R&DB FOUNDATION, priority 2009, published 2014)
Marks after values point to notes of the source that are not given here.

How the values were obtained:
resected liver = assay: Liver weight increase in the rat after 2/3 partial hepatectomy or sham laparotomy; format: in vivo, Male Sprague Dawley rats
Protocol: Male Sprague Dawley rats were purchased from Central Lab. Animal Inc., Korea. Test animals were adapted to an animal facility where temperature was maintained at 22±2° C., humidity at 55±5%, and artificial illumination was provided for 12 hours a day, at least for a week before being used in the experiment. The rats weighed 230-260 g at the time when partial hepatectomy was performed. Filtered tap water and solid regular rat chow were provided freely. For the animal group that was supposed to be treated with betaine, betaine purchased from Sigma, USA, was dissolved in filtered tap water at the concentration of 1% and provided to the group as drinking water. Betaine was administered after partial hepatectomy was conducted. In some experiments, betaine containing drinking water was provided to the animal group from 2 weeks before partial hepatectomy to increase the effect of betaine. Partial hepatectomy was performed according to the method originally introduced by Higgins and Anderson (Arch Path, 12; 186, 1931). The rat was anesthetized lightly with ether, and then the middle line of abdomen was incised approximately 3 cm. First, the skin was cut and then abdominal muscle was incised carefully not to damage internal organs. The incised upper part was lifted up by using a pincette to cut the connective tissues connected with diaphragm supporting liver tissue using scissors. Light pressure was applied to the surrounding area of the incision line to expose median lobe and left lateral lobe taking about 70 volume % of the total hepatic lobes. Connective tissues of each hepatic lobe were carefully removed and tied with suture to close the blood vessel, followed by elimination of the exposed hepatic lobe. Muscles and skin of the incised area were stitched up with suture. The incised area was sterilized with 70% ethyl alcohol to prevent infection. For the control group, abdominal incision was simply performed and then stitched up (Sham). Male rats were randomly divided into 4 groups of 4 rats each. Group 1, the control group, had laparotomy alone without damaging internal organs and then the opening was sealed (Sham group). Group 2 was treated with betaine after laparotomy (Sham+Betaine group). Group 3 had two-thirds (⅔) partial hepatectomy (PH group), and Group 4 was treated with betaine after ⅔ partial hepatectomy (PH+Betaine group). For the administration of betaine to the groups that had laparotomy only or partial hepatectomy, 1% betaine solution was provided as drinking water. For other groups, filtered tap water was provided as drinking water. In Table 1, the values on day 0 indicate the relative liver weight (liver/weight percentage) in the normal rats not having the surgery. Each group was composed of 4 rats except that 8 rats were used for the calculation for day 0 values. Value is mean±standard deviation. * Statistically significant difference between the group treated with betaine and the group without betaine treatment (Student's t-test, P<0.05). […] SH: Sham, PH: Partial hepatectomy. The number in parenthesis indicates % to the SH group.

[1] = system: PCNA (proliferating cell nuclear antigen); assay: PCNA expression in liver after partial hepatectomy (Western blotting); format: in vivo, rat; conditions: for PCNA expression, increase compared with tap water group: 1% betaine from 2 weeks before hepatectomy; for PCNA expression compared with tap water group: 1% betaine in drinking water after hepatectomy
Protocol: (§1) Male Sprague Dawley rats were purchased from Central Lab. Animal Inc., Korea. Test animals were adapted to an animal facility where temperature was maintained at 22±2° C., humidity at 55±5%, and artificial illumination was provided for 12 hours a day, at least for a week before being used in the experiment. The rats weighed 230-260 g at the time when partial hepatectomy was performed. Filtered tap water and solid regular rat chow were provided freely. For the animal group that was supposed to be treated with betaine, betaine purchased from Sigma, USA, was dissolved in filtered tap water at the concentration of 1% and provided to the group as drinking water. Betaine was administered after partial hepatectomy was conducted. In some experiments, betaine containing drinking water was provided to the animal group from 2 weeks before partial hepatectomy to increase the effect of betaine.
(§2) Partial hepatectomy was performed according to the method originally introduced by Higgins and Anderson (Arch Path, 12; 186, 1931). The rat was anesthetized lightly with ether, and then the middle line of abdomen was incised approximately 3 cm. First, the skin was cut and then abdominal muscle was incised carefully not to damage internal organs. The incised upper part was lifted up by using a pincette to cut the connective tissues connected with diaphragm supporting liver tissue using scissors. Light pressure was applied to the surrounding area of the incision line to expose median lobe and left lateral lobe taking about 70 volume % of the total hepatic lobes. Connective tissues of each hepatic lobe were carefully removed and tied with suture to close the blood vessel, followed by elimination of the exposed hepatic lobe. Muscles and skin of the incised area were stitched up with suture. The incised area was sterilized with 70% ethyl alcohol to prevent infection. For the control group, abdominal incision was simply performed and then stitched up (Sham).
(§3) Cytosolic fraction was prepared from the excised liver using the standard method. The protein of cytosol was separated by SDS-PAGE, followed by electroblotting, and then transferred to nitrocellulose membrane. The membrane was treated with PBS-T buffer containing 5% nonfat milk at 4° C. for overnight. The nitrocellulose membrane was reacted with the primary antibody diluted with 5% bovine serum albumin. The primary antibodies used herein were mouse monoclonal anti-cyclin D1 serum (Santa Cruz Biotechnology, CA, U.S.A.) and rabbit polyclonal anti-human PCNA (Santa Cruz Biotechnology, CA, U.S.A.). After washing twice with PBS-T, the membrane was treated with the secondary antibody horseradish peroxidase-conjugated goat anti-rabbit IgG (Pierce Biotechnology, Rockford, Ill., U.S.A.). […]

[2] = Serum hepatotoxic parameters (AST, ALT) in rats after hepatectomy; format: in vivo, Male Sprague Dawley rats; conditions: for ALT / AST: serum, end of experiment
Protocol: as §1, §2
Alanine aminotransferase (ALT) activity and aspartate aminotransferase (AST) activity were measured by the method of Reitman and Frankel (Amer J Clin Pathol 28; 56, 1957) using spectrophotometer. ALT, AST substrate solutions and an aliquot of serum were added to a test tube, followed by incubation at 37° C. Upon completion of the reaction, the color developing agent and 0.4 N NaOH were added thereto, followed by measurement of absorptivities at 520 nm. The activity of each enzyme was calculated based on the standard calibration curve generated by using pyruvate as a substrate.
Male rats were randomly divided into 4 groups of 4 rats each. Group 1, the control group, had laparotomy alone without damaging internal organs and then the opening was sealed (Sham group). Group 2 was treated with betaine after laparotomy (Sham+Betaine group). Group 3 had two-thirds (⅔) partial hepatectomy (PH group), and Group 4 was treated with betaine after ⅔ partial hepatectomy (PH+Betaine group). For the administration of betaine to the groups that had laparotomy only or partial hepatectomy, 1% betaine solution was provided as drinking water. For other groups, filtered tap water was provided as drinking water.
At the end of the experiment, hepatotoxic parameters in serum were measured.
In Table 2, each group was composed of 4 rats. Value is mean±standard deviation. Statistically significant difference was not shown between different groups (Oneway ANOVA followed by Neuman Keul Multiple range test, P>0.05).

cyclin D1 = assay: Cyclin D1 expression in liver after partial hepatectomy (Western blotting); format: in vivo, rat
Protocol: as §1, §2, §3

[3] = 2/3 partial hepatectomy + 1% betaine in drinking water after surgery, day 7
[4] = Sham + 1% betaine in drinking water
[5] = partial hepatectomy + 1% betaine in drinking water

C[N+](C)(C)CC(=O)[O-] [Betaine, trimethylglycine]
relative liver weight (liver/weight percentage) (resected liver; 2/3 partial hepatectomy + 1% betaine in drinking water after surgery, day 1): 1.47 ± 0.05% | relative liver weight (liver/weight percentage) (resected liver; 2/3 partial hepatectomy + 1% betaine in drinking water after surgery, day 2): 1.98 ± 0.05* % | relative liver weight (liver/weight percentage) (resected liver; [3]): 3.17 ± 0.06*, a % | relative liver weight, % to the SH group (resected liver; [3]): (94%) | relative liver weight, % to the SH group (resected liver; 2/3 partial hepatectomy + 1% betaine in drinking water after surgery, day 7, listed as betaine): 94% | relative liver weight (liver/weight percentage) (resected liver; Sham (laparotomy only) + 1% betaine in drinking water, day 7): 3.30 ± 0.10a % | relative liver weight (liver/weight percentage) (resected liver; Sham (laparotomy only) + 1% betaine in drinking water, day 7, listed as betaine): did not affect the relative liver weight | relative liver weight, % to the SH group (resected liver; Sham + 1% betaine in drinking water, day 7): (98%) | PCNA expression, increase compared with tap water group ([1]; 24 hours after hepatectomy (FIG. 1b)): 190% | PCNA expression, increase compared with tap water group ([1]; 48 hours after hepatectomy (FIG. 1b)): 150% | PCNA expression compared with tap water group ([1]; 24 hours (FIG. 1a)): significantly increased | PCNA expression compared with tap water group ([1]; 48 hours (FIG. 1a)): significantly increased | effect on serum AST and ALT activities ([2]; 1% betaine in drinking water, sham or hepatectomized rats): did not affect serum AST and ALT activities | ALT [2, 4]: 22 ± 2 units/ml | AST [2, 4]: 83 ± 3 units/ml | ALT [2, 5]: 27 ± 2 units/ml | AST [2, 5]: 78 ± 11 units/ml | cyclin D1 expression, higher than tap water group (cyclin D1; betaine from 2 weeks before hepatectomy, 12th hour after hepatectomy (FIG. 2)): 50% | cyclin D1 expression compared with tap water group (cyclin D1; betaine from 2 weeks before hepatectomy, 24 hours after hepatectomy (FIG. 2)): remained elevated | cyclin D1 expression compared with tap water group (cyclin D1; betaine from 2 weeks before hepatectomy, 48 hours after hepatectomy (FIG. 2)): difference between the two groups disappeared | cyclin D1 expression compared with tap water group (cyclin D1; normal rats without hepatectomy, betaine in drinking water, 0 hour (FIG. 2)): no significant difference
